# Test results reported in patent US20230000996A1, “RAPAFUCIN DERIVATIVE COMPOUNDS AND METHODS OF USE THEREOF” (The Johns Hopkins University, priority 2019, published 2023).
# Assay: Nucleoside uptake, single concentration assay (Rel.Uptake); cell line indicated in each table
# Format: cell-based
# Conditions: 293T cells; single concentration; response relative to DMSO
# Method: Nucleoside Uptake Assay (uptake). Nuceloside uptake assays were performed with using 3H-Thymidine as described in Guo et al. (2018) Nat. Chem. 11:254-63. Specific cell lines are indicated in each assay and cultured in complete growth media. Activity is scored according to the IC50 values relative to DMSO control. “Low” indicates an IC50 greater than 600 nM, “Medium” indicates an IC50 between 300 nM and 600 nM “High” indicates an IC50 less than 300 nM. “Rel.Uptake” refers to uptake activity characterization relative to a single concentration assay. “Low” indicates a response greater than 0.6 times the activity relative to DMSO, “Medium” indicates a response between 0.6 and 0.3 times the activity relative to DMSO, “High” indicates a response less than 0.3 times the activity relative to DMSO.
row,Structure (SMILES),"Rel. Uptake, 293T"
1,COc1ccc(CC[C@H]2OC(=O)[C@@H]3CCCCN3C(=O)C(=O)C(C)(C)COC(=O)C=CCCN(C)C(=O)[C@H](CC(C)C)N(C)C(=O)[C@H]3CCCN3C(=O)[C@H](Cc3ccc(CC(=O)OC(C)(C)C)cc3)NC(=O)C(c3ccccc3)NC(=O)CCC(=O)Nc3cccc2c3)cc1OC (stereo partly drawn) [Compound 1081],medium
2,COc1ccc(CC[C@H]2OC(=O)[C@@H]3CCCCN3C(=O)C(=O)C(C)(C)COC(=O)C=CCCN(C)C(=O)[C@H](CC(C)C)N(C)C(=O)[C@H]3CCCN3C(=O)[C@H](CC(=O)OC(C)(C)C)N(C)C(=O)C(c3ccccc3)NC(=O)CCC(=O)Nc3cccc2c3)cc1OC (stereo partly drawn) [Compound 1066],high

# Same assay, conditions: nucleoside uptake, single concentration assay, 293T cells, response relative to DMSO
row,Structure (SMILES),"Rel. Uptake, 293T"
1,COc1cc(O)c(CC[C@H]2OC(=O)[C@@H]3CCCCN3C(=O)C(=O)C(C)(C)COC(=O)C=CCCN(C)C(=O)[C@@H](Cc3ccccc3)NC(=O)CN(C)C(=O)[C@@H](Cc3ccccc3)NC(=O)[C@H](Cc3ccc(O)cc3)N(C)C(=O)COc3cccc2c3)cc1OC [Compound 1568],low
2,COc1cc(CC[C@H]2OC(=O)[C@@H]3CCCCN3C(=O)C(=O)C(C)(C)COC(=O)C=CCCN(C)C(=O)[C@@H](Cc3ccccc3)NC(=O)CN(C)C(=O)[C@@H](Cc3ccccc3)NC(=O)[C@H](Cc3ccc(O)cc3)N(C)C(=O)COc3cccc2c3)c(OC)c(OC)c1 [Compound 1582],low
3,COc1cc(CC[C@H]2OC(=O)[C@@H]3CCCCN3C(=O)C(=O)C(C)(C)COC(=O)C=CCCN(C)C(=O)[C@@H](Cc3ccccc3)NC(=O)CN(C)C(=O)[C@@H](Cc3ccccc3)NC(=O)[C@H](Cc3ccc(O)cc3)N(C)C(=O)COc3cccc2c3)cc(OC)c1OC [Compound 1566],medium
4,COc1cc(F)c(CC[C@H]2OC(=O)[C@@H]3CCCCN3C(=O)C(=O)C(C)(C)COC(=O)C=CCCN(C)C(=O)[C@@H](Cc3ccccc3)NC(=O)CN(C)C(=O)[C@@H](Cc3ccccc3)NC(=O)[C@H](Cc3ccc(O)cc3)N(C)C(=O)COc3cccc2c3)cc1OC [Compound 1570],medium
5,COc1cc(CC[C@H]2OC(=O)[C@@H]3CCCCN3C(=O)C(=O)C(C)(C)COC(=O)C=CCCN(C)C(=O)[C@@H](Cc3ccccc3)NC(=O)CN(C)C(=O)[C@@H](Cc3ccccc3)NC(=O)[C@H](Cc3ccc(O)cc3)N(C)C(=O)COc3cccc2c3)cc(F)c1OC [Compound 1569],low
6,COc1ccc(CC[C@H]2OC(=O)[C@@H]3CCCCN3C(=O)C(=O)C(C)(C)COC(=O)C=CCCN(C)C(=O)[C@H](CC(C)C)N(C)C(=O)[C@H]3CCCN3C(=O)[C@H](Cc3ccc(C(=O)Nc4cccnc4)cc3)NC(=O)[C@H](c3ccccc3)NC(=O)CCC(=O)Nc3cccc2c3)cc1OC [Compound 1562],low
7,CCCC[C@H]1C(=O)N[C@@H](Cc2ccc3ccccc3c2)C(=O)N(C)[C@@H](COC(C)(C)C)C(=O)NCC(=O)N(C)CCC=CC(=O)OCC(C)(C)C(=O)C(=O)N2CCCC[C@H]2C(=O)O[C@H](CCc2ccc(OC)c(O)c2)c2cccc(c2)OCC(=O)N1C [Compound 1564],high
8,COc1ccc(OC)c(OC)c1CC[C@H]1OC(=O)[C@@H]2CCCCN2C(=O)C(=O)C(C)(C)COC(=O)C=CCCN(C)C(=O)[C@@H](Cc2ccccc2)NC(=O)CN(C)C(=O)[C@@H](Cc2ccccc2)NC(=O)[C@H](Cc2ccc(O)cc2)N(C)C(=O)COc2cccc1c2 [Compound 1583],low
9,COc1ccc(CC[C@H]2OC(=O)[C@@H]3CCCCN3C(=O)C(=O)C(C)(C)COC(=O)C=CCCN(C)C(=O)[C@@H](Cc3ccccc3)NC(=O)CN(C)C(=O)[C@@H](Cc3ccccc3)NC(=O)[C@H](Cc3ccc(O)cc3)N(C)C(=O)COc3cccc2c3)c(F)c1OC [Compound 1571],low
10,COc1ccc(CC[C@H]2OC(=O)[C@@H]3CCCCN3C(=O)C(=O)C(C)(C)COC(=O)C=CCCN(C)C(=O)[C@@H](Cc3ccccc3)NC(=O)CN(C)C(=O)[C@@H](Cc3ccccc3)NC(=O)[C@H](Cc3ccc(O)cc3)N(C)C(=O)COc3cncc2c3)cc1OC [Compound 1580],low
